Data reported in US9144239B2, “Macrocyclic picolinamides as fungicides” (DOW AGROSCIENCES LLC, priority 2012, dated 2015).
Read-outs that look alike come from different tables or passages of the source.

Assays:
[1] = test system: Mycosphaerella graminicola; anamorph: Septoria tritici; test: Fungicidal activity: leaf blotch of wheat (SEPTTR), wheat seedlings; format: in vivo; settings: Zymoseptoria tritici
Method in brief: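 Percent control derives from disease severity on treated versus untreated first leaves, rated 0–100% when symptoms were fully expressed on untreated plants. Yuma seedlings were inoculated with S. tritici spores either before or after spraying to run-off. The spray was acetone solution diluted 1:9 in water with 110 ppm Triton X-100. Infection took place in 100% RH dew chambers, then a 20 °C greenhouse.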

[2] = test system: Puccinia triticina; synonym: Puccinia recondita f. sp. tritici; test: Fungicidal activity: wheat brown rust (PUCCRT), wheat seedlings; format: in vivo
Method in brief: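 Wheat (Yuma) seedlings at first-leaf stage, inoculated with Puccinia triticina spores before or after treatment, held overnight in dark dew room at 22° C, 100% RH, then greenhouse at 24° C. Acetone solutions diluted with nine volumes water containing 110 ppm Triton X-100, sprayed to run-off. Percent disease control derived from severity (0–100%) relative to untreated plants.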

[3] = 24 h, 100 ppm, 1 Day Protectant, wheat, read-out: Disease Control SEPTTR 1DP
[4] = 72 h, 100 ppm, 3 Day Curative, wheat, read-out: Disease Control SEPTTR 3DC
[5] = 24 h, 100 ppm, 1 Day Protectant, wheat, read-out: Disease Control PUCCRT 1DP
[6] = 72 h, 100 ppm, 3 Day Curative, wheat, read-out: Disease Control PUCCRT 3DC
[7] = 24 h, read-out: Disease Control SEPTTR 1DP
[8] = 72 h, read-out: Disease Control SEPTTR 3DC
[9] = 72 h, read-out: Disease Control PUCCRT 3DC
[10] = 24 h, read-out: Disease Control PUCCRT 1DP

With `CCCCO[C@H]1COC[C@H](NC(=O)c2nccc(OC)c2O)C(=O)O[C@@H](C)[C@@H]1OCC(C)C` [Compound 48, N-((3S,7S,8S,9S)-7-butoxy-8-isobutoxy-9-methyl-2-oxo-1,5-dioxonan-3-yl)-3-hydroxy-4-methoxypicolinamide] the pest or weed control at 100 ppm [1, 3] was 80 to 100%, the pest or weed control at 100 ppm [1, 4] was 80 to 100% and the pest or weed control at 100 ppm [2, 5] was 80 to 100%. For the same compound, the pest or weed control at 100 ppm [2, 6] was 80 to 100% and the melting point was 104 to 106 °C.
`CCCCO[C@H]1COC[C@H](NC(=O)c2nccc(OC)c2O)C(=O)O[C@@H](C)[C@@H]1OCCOC` [Compound 52, N-((3S,7S,8S,9S)-7-butoxy-8-(2-methoxyethoxy)-9-methyl-2-oxo-1,5-dioxonan-3-yl)-3-hydroxy-4-methoxypicolinamide] showed a pest or weed control at 100 ppm [1, 7] of 0 to 80%, a pest or weed control at 100 ppm [1, 8] of 0 to 80% and a pest or weed control at 100 ppm [2, 9] of 80 to 100%. It also gave a melting point of 75 to 77 °C.
Compound `CCCCO[C@H]1COC[C@H](NC(=O)c2nccc(OC)c2O)C(=O)O[C@@H](C)[C@@H]1OCC(F)F` [Compound 53, N-((3S,7S,8S,9S)-7-butoxy-8-(2,2-difluoroethoxy)-9-methyl-2-oxo-1,5-dioxonan-3-yl)-3-hydroxy-4-methoxypicolinamide] has a pest or weed control at 100 ppm [1, 7] of 0 to 80%, a pest or weed control at 100 ppm [1, 8] of 0 to 80% and a pest or weed control at 100 ppm [2, 10] of 80 to 100%. For the same compound, the pest or weed control at 100 ppm [2, 9] was 80 to 100% and the melting point was 127 to 129 °C.
`COc1ccnc(C(=O)N[C@H]2COC[C@H](OC(=O)C(C)C)[C@@H](OC(=O)C(C)C)[C@H](C)OC2=O)c1O` [Compound 56, (3S,7S,8S,9S)-3-(3-hydroxy-4-methoxypicolinamido)-9-methyl-2-oxo-1,5-dioxonane-7,8-diyl bis(2-methylpropanoate)] gave a pest or weed control at 100 ppm [1, 7] of 0 to 80%, a pest or weed control at 100 ppm [1, 8] of 80 to 100% and a pest or weed control at 100 ppm [2, 10] of 80 to 100%. The pest or weed control at 100 ppm [2, 9] was 80 to 100% and the melting point was 111 to 113 °C.
With `CCC(C)(C)O[C@H]1COC[C@H](NC(=O)c2nccc(OC)c2O)C(=O)O[C@@H](C)[C@@H]1OCC(C)C` [Compound 71, 3-hydroxy-N-((3S,7S,8S,9S)-8-isobutoxy-9-methyl-2-oxo-7-(tert-pentyloxy)-1,5-dioxonan-3-yl)-4-methoxypicolinamide] the pest or weed control at 100 ppm [1, 3] was 80 to 100%, the pest or weed control at 100 ppm [1, 4] was 0 to 80% and the pest or weed control at 100 ppm [2, 5] was 80 to 100%. The pest or weed control at 100 ppm [2, 6] was 0 to 80% and the melting point was 138 to 140 °C.
With `COc1ccnc(C(=O)N[C@H]2COC[C@H](OCC3CC3)[C@@H](OCC3CC3)[C@H](C)OC2=O)c1O` [Compound 209] the pest or weed control at 100 ppm [1, 4] was 0 to 80%, the pest or weed control at 100 ppm [2, 5] was 0 to 80% and the pest or weed control at 100 ppm [2, 6] was 0 to 80%. The melting point was 114 to 117 °C.
With `COc1ccnc(C(=O)N[C@H]2COC[C@H](OCC3CC3)[C@@H](OCC3CC3)[C@H](C)OC2=O)c1OC(C)=O` [Compound 232] the pest or weed control at 100 ppm [1, 3] was 80 to 100%, the pest or weed control at 100 ppm [1, 4] was 0 to 80% and the pest or weed control at 100 ppm [2, 5] was 80 to 100%. The pest or weed control at 100 ppm [2, 6] was 80 to 100% and the melting point was 54 to 60 °C.
